{"source": "patent US5795912A", "about": "“Therapeutic composition for corneal impairment” (Senju Pharmaceutical, Co., Ltd., priority 1997, dated 1998)", "key": {"rats [1]": {"test_system": "rats", "experiment": "LD50, p.o. (rats)", "format": "in vivo"}, "rats [2]": {"test_system": "rats", "experiment": "LD50, i.v. (rats)", "format": "in vivo"}, "[3]": {"test_system": "UV-induced corneal lesion", "experiment": "Inhibitory effect on UV-induced corneal lesions in rabbits (fluorescein penetration into the cornea, corneal epithelial barrier function)", "format": "in vivo, rabbit (white rabbits)", "conditions": "from Table 1 and FIG. 1", "procedure": "The inhibitory effect of the present compound on UV-induced corneal lesions in rabbits was evaluated. Test substance: L-Ascorbyl DL-α-tocopherylphosphate potassium (abbreviation: EPC-K). Method: White rabbits were used; 4 animals assigned to the present compound treatment group and 3 assigned to a control group (the nictitating membrane was excised beforehand).\nFor UV irradiation, Hoya-Schott's HLS200U (dominant wavelength 365 nm) equipped with a 200 W mercury-xenon lamp as the light source was used. Ushio Electric's Unimeter UIT-101 was used for the determination of luminous energy.\nOne eye of each rabbit was kept open with an eye speculum and set at a distance of 43 cm from the light source so that the irradiation energy would be 0.024 J/cm^2. […]\nThe degree of rabbit corneal lesion was evaluated by the following method^1). Using fluorescein as a tracer, the fluorescence intensity of the tracer dye penetrating into the cornea within a predetermined region was measured for a quantitative assessment of the barrier function of the corneal epithelium (The corneal epithelium has a barrier function^2) to restrict penetration of any substance into the deep layer of the cornea and when an erosion or other injury occurs in the corneal epithelium, this barrier function is compromised so that the penetration of the substance into the depth of the cornea is increased). […]"}}}
{"smiles": "Cc1c(C)c2c(c(C)c1OP(=O)(O)OC1=C(O)[C@@H]([C@@H](O)CO)OC1=O)CCC(C)(CCCC(C)CCCC(C)CCCC(C)C)O2", "note": "(mixture of isomers) [EPC-K, L-ascorbyl DL-α-tocopheryl phosphate potassium]", "values": [{"measurement": "LD50", "setting": "rats [1]", "result": "≥ 5", "unit": "g/kg"}, {"measurement": "LD50", "setting": "rats [2]", "result": "≥ 100", "unit": "mg/kg"}, {"measurement": "inhibition of UV-induced corneal lesion (result in words)", "setting": "[3]", "result": "effectively inhibits UV-induced corneal lesion"}]}
